The record followed here is publication PMC8398714, “Synthesis and Evaluation of Biological Activities of Bis(spiropyrazolone)cyclopropanes: A Potential Application against Leishmaniasis” (Molecules, 2021).

Holding throughout (format): cell-based
Test [1] has as its system Leishmania mexicana cells. Put plainly: Comet assay of Leishmania mexicana cells. Also noted: Comet tail length, mean (vary) / Comet tail length, median (Q50): unit not given here. To be noted: L. mexicana, 24 h at MIC; for Genotoxic effect (DNA breaks) in comet assay: in words; for Comet tail length, mean (vary) / Comet tail length, median (Q50): MMS 0.011%, Kruskal-Wallis $means. As for the experimental part:
We quantified DNA breaks by a comet assay to determine if these compounds are genotoxic. Here, L. mexicana cells were exposed for 24 h to MIC concentrations previously determined (see Materials and Methods Section) for each compound. Figure 1 represents the measurements obtained for tail length. All compounds generated DNA breaks expect 4s. […] Samples with DMSO and MMS (0.011%) were included as controls. Some representative pictures are shown at Figure S4. The effect of 4p could not be determined because the cells appear to be very damaged. The data was subjected via a Kruskal–Wallis one-way ANOVA (Statistical Analyses S2). […] These observations support a mechanism of action through the generation of DNA damage.
For leishmania, a method previously described for yeast was adapted. Briefly, after incubating the cells in presence of the compounds for 24 h, cells were collected and washed with buffer S (1 M sorbitol, 25 mM KH2PO4 in ultrapure water and adjust to pH 6.5 with NaOH). The pellet was resuspended in 400 µL of 1.5% LMA and 40 µL was spread (second layer) onto previously agarose-coated slides (first layer).
Slides were immersed in cold lysis buffer (30 mM NaOH, 1 M NaCl, 0.05 % (w/v) lauroylsarcosine, 50 mM EDTA, and 10 mM Tris–HCl, pH 10) for 25 min and then in cold electrophoresis alkaline buffer (30 mM NaOH, 10 mM EDTA, and 10 mM Tris–HCl, pH 10). They were then subjected to electrophoresis at 26V and 300 mA. Slides were immersed in neutralization buffer (10 mM Tris–HCl, pH 7.4; prepared in advance and stored at 4 °C) for 10 min at room temperature. The cells were then treated with proteinase K (20 min, 37 °C in humid chamber), followed by a new neutralization step. To dehydrate the slides, they were immersed in EtOH 90% and EtOH absolute for 10 min each. Finally, the slides were stained with Sybr Gold 1X.
The DNA migration was analyzed using a LEICA microscope with fluorescence (40×) by scoring 100 cells per slide in duplicate. The tail moment parameter was then analyzed by the Comet Score software.

The test system of test [2] is promastigotes of Leishmania mexicana. Put plainly: Leishmanicidal activity, MTT assay on promastigotes. To be noted: for SI (Selectivity Index) = Citotoxic activity/Leishmanicidal activity: CC50 RAW / IC50 L. mexicana; for IC50: Leishmania mexicana. As for the experimental part: The leishmanicidal activity of all compounds was evaluated by measuring promastigotes’ mitochondrial activity using MTT colorimetric assay as described previously. In this study, promastigotes from Leishmania mexicana were used. The species were confirmed by amplifying and sequencing cytochrome b gene. Promastigotes were cultured at 25 °C in Schneider’s Drosophila Medium (Gibco, Invitrogen, Carlsbad, CA, USA) supplemented with 10% fetal bovine serum (Eurobio, Les Ulis, France). The medium was renewed every third day. Parasite density was determined by counting the cells using a Neubauer chamber.
Into each well of a 96-well plate were dispensed 1 × 10^6 parasites/well. A stock solution of the compounds was prepared in DMSO (Sigma Aldrich, Saint Louis, MO, USA), and serial dilutions were added to the parasite suspension, leading to concentrations ranging from 100 to 0.001 µM, keeping the solvent concentration at 0.5%. The final volume was 200 µL for each well and triplicate conditions were carried out. Amphotericin B (Gibco) treatment (1 µM) untreated parasites and DMSO 0.5% were used as positive and negative controls, respectively. After exposure to the compounds for 48 h in culture medium, 20 µL of a solution of 5 mg/mL MTT dissolved in PBS were added to each well. The plate was incubated at 25 °C for 2 h in darkness. The plate was then centrifuged at 4400 rpm for 10 min and the culture medium was then aspirated; 50 µL of DMSO were added into each well to solubilize the formazan crystals and the plate was shaken for 5 min and then it was measured by recording changes in absorbance at 570 nm using a microplate reader Cytation 5 (BioTek) spectrophotometer. A reference wavelength of 630 nm was used as background subtraction. Optical densities were analyzed because the quantity of formazan is directly proportional to the number of viable parasites. Data were analyzed with the statistical software GraphPad Prism 7.02 (GraphPad Software, Corp.).

The subject of a further test is PC-3. Briefly: MTS cell viability assay on PC-3 cells. Particulars: Homo sapiens, 48 h; for inhibition at 100 µM: Dox 1 µM, mean ± SEM, NA = no activity, read-out: Percentage (%) of inhibition, PC-3; for IC50: 15-150 µM, mean ± SEM of triplicates. Background: Tetrazolium assays rely on reduction of a dye to a coloured formazan, in cell work by metabolically active cells.

The next test concerns HeLa. Briefly: MTS cell viability assay on HeLa cells. Particulars: Homo sapiens, 48 h, Dox 1 µM, mean ± SEM, NA = no activity, read-out: Percentage (%) of inhibition, HeLa.
Test [3] can be described thus: MTS cell viability assay on A-549 cells. Particulars: Homo sapiens; 48 h, 15-150 µM, mean ± SEM of triplicates.
Setting [4] is: read-out: IC50 original values, x.1 (Mean).
The mark [5] stands for this setting: L. mexicana promastigotes, 48 h, MTT, read-out: Leishmanicidal Activity IC50.

SMILES strings stand for the structures. Entries after “also recorded” stand apart in the source; their conditions may differ. Like-named read-outs stand apart in the source and are kept apart here.

By IC50 is commonly meant the concentration that gives 50% inhibition. As a reminder, the inhibition is the relative decrease from the control value, in per cent. Turning to `COC(=O)c1ccc(C2[C@@]3(C(=O)N(c4ccccc4)N=C3C)[C@]23C(=O)N(c2ccccc2)N=C3C)cc1` (relative stereo) [4q, (5R*,6R*)-Methyl-4[4,10-dimethyl-2,8-diphenyl-2,3,8,9-tetraazadispiro[4.0.4.1]undeca-3,9-diene-1,7-dione-11-yl]benzoate], the “Genotoxic effect (DNA breaks) in comet assay” value in test [1] is recorded as “highest genotoxic activity; also recorded: strongest effects”. In addition, the “Comet tail length, mean (vary)” value in test [1] turned out to be 172025000. For the same compound, the “Comet tail length, median (Q50)” value in test [1] was determined as 177500000. The “SI (Selectivity Index) = Citotoxic activity/Leishmanicidal activity” value in test [2] is 14.3. Also, the half-inhibitory concentration (IC50) in test [2] (setting [4]) worked out at 0.277 µM; in test [2] (setting [5]), 0.28 ± 0.04 µM; in the test with PC-3 it was 109 ± 2.77 µM; in test [3], 85.1 ± 10.5 µM. For the same compound, the inhibition at 100 µM was 50.5 ± 2.38% with PC-3 and 31.7 ± 1.52% in the test on HeLa.
Consider `CC1=NN(c2ccccc2)C(=O)[C@@]12C(c1ccc(C(F)(F)F)cc1)[C@@]21C(=O)N(c2ccccc2)N=C1C` (relative stereo) [4r, (5R*,6R*)-11-(4-Trifluoromethylphenyl)-4,10-dimethyl-2,8-diphenyl-2,3,8,9-tetraazadispiro[4.0.4.1]undeca-3,9-diene-1,7-dione], for which the “Comet tail length, mean (vary)” value in test [1] is on record as 96310000. Also, the “Comet tail length, median (Q50)” value in test [1] is recorded as 98500000. For the same compound, in test [2], the “SI (Selectivity Index) = Citotoxic activity/Leishmanicidal activity” value came out at 34.2. For the same compound, the IC50 in test [2] (setting [4]) was 0.188 µM; in test [2] (setting [5]), 0.19 ± 0.06 µM; in the test with PC-3, 49.8 ± 5.51 µM; in test [3] it was 78.7 ± 7.9 µM. The inhibition at 100 µM in the test with PC-3 is 54.7 ± 1.95%; in the test with HeLa, 50.2 ± 0.52%.
`CC1=NN(c2ccccc2)C(=O)[C@@]12C(c1ccc(OC(F)(F)F)cc1)[C@@]21C(=O)N(c2ccccc2)N=C1C` (relative stereo) [4s, (5R*,6R*)-11-(4-Trifluoromethoxyphenyl)-4,10-dimethyl-2,8-diphenyl-2,3,8,9-tetraazadispiro[4.0.4.1]undeca-3,9-diene-1,7-dione]: the “Genotoxic effect (DNA breaks) in comet assay” value in test [1] is on record as “weakest”. Besides, the “Comet tail length, mean (vary)” value in test [1] amounted to 39720000. In test [1], the “Comet tail length, median (Q50)” value was determined as 39500000. In test [2], the “SI (Selectivity Index) = Citotoxic activity/Leishmanicidal activity” value was 45.3. Moreover, the IC50 in test [2] (setting [4]) was 0.189 µM; in test [2] (setting [5]) it was 0.19 ± 0.07 µM; in the test with PC-3, 70.3 ± 1.9 µM; in test [3], 78.5 ± 7.08 µM. Also, the inhibition at 100 µM was found to be 49.7 ± 2.11% in the test with PC-3 and 43.6 ± 1.75% with HeLa.
